Experimental data from patent US20060134225A1, “Phosphate binder with reduced pill burden” (priority 2004, published 2006).

Columns and labels:
adult beagle dogs = assay: Dog study, urine phosphate excretion; assay type: in vivo; conditions: oral capsules, 2250 mg elemental lanthanum twice daily
Method: The doses were administered 30 minutes after provision of food to the animals. At least 14 days washout was allowed between the crossover arms. Plasma was obtained pre-dose and 1.5, 3, 6, 7.5, 9, 12, 24, 36, 48, 60, and 72 hours after dosing and analyzed for lanthanum using ICP-MS. Urine was collected by catheterization before and approximately 24 hours after dosing and creatinine and phosphorus concentrations measured.

[1] = tested on: adult Sprague-Dawley rats; assay: In vivo study in 5/6 nephrectomized rats, urine phosphorus excretion; set-up: species or system rat; conditions: 314 mg elemental lanthanum/kg/day oral, 14 days, compared to untreated rats
Method: Groups of six adult Sprague-Dawley rats underwent ⅚th nephrectomy in two stages over a period of 2 weeks and were then allowed to recover for a further two weeks prior to being randomized for treatment. The groups received vehicle (0.5% w/v carboxymethyl cellulose), or lanthanum oxycarbonate suspended in vehicle, once daily for 14 days by oral […] (10 ml/kg/day). The dose delivered 314 mg elemental lanthanum/kg/day. Dosing was carried out immediately before the dark (feeding) cycle on each day. Urine samples (24 hours) were collected prior to surgery, prior to the commencement of treatment, and twice weekly during the treatment period. Volume and phosphorus concentration were measured.
Feeding—During the acclimatization and surgery period, the animals were given Teklad phosphate sufficient diet (0.5% Ca, 0.3% P; Teklad No. TD85343), ad libitum. At the beginning of the treatment period, animals were pair fed based upon the average food consumption of the vehicle-treated animals the previous week.
5/6 Nephrectomy—After one week of acclimatization, all animals were subjected to 5/6 nephrectomy surgery. The surgery was performed in two stages. First, the two lower branches of the left renal artery were ligated. One week later, a right nephrectomy was performed. […]

Molecule	urine phosphate excretion (marker of phosphorous binding) (adult beagle dogs)	phosphorus excretion in urine (marker of dietary phosphorus binding) [1]
O=C([O-])[O-].[La+3].[OH-] [compound A, LaCO3OH]	reduction of urine phosphate excretion	–
O=C([O-])[O-].[La+3].[La+3].[O-2].[O-2] [compound B, La2O2CO3]	reduction of urine phosphate excretion	–
O=C([O-])[O-].[La+3].[OH-] [lanthanum carbonate hydroxide]	–	decrease in phosphorus excretion
lanthanum oxycarbonate	–	decrease in phosphorus excretion
